Measurements reported in patent US20170210723A1, “MOLECULES HAVING PESTICIDAL UTILITY, AND INTERMEDIATES, COMPOSITIONS, AND PROCESSES, RELATED THERETO” (priority 2016, published 2017).

How the values were obtained:
[1] = tested on: Beet Armyworm (Spodoptera exigua); test: Bioassays on BAW, 128-well diet tray assay; format: in vivo; conditions: Spodoptera exigua, 168 h; 50 μg/cm^2 on artificial diet, second instar larvae, five to seven days; read-out: BAW % Control (or Mortality) rating
Procedure: Bioassays on BAW were conducted using a 128-well diet tray assay. One to five second instar BAW larvae were placed in each well (3 mL) of the diet tray that had been previously filled with 1 mL of artificial diet to which 50 μg/cm^2 of the test molecule (dissolved in 50 μL of 90:10 acetone-water mixture) had been applied (to each of eight wells) and then allowed to dry. Trays were covered with a clear self-adhesive cover and held at 25° C., 14:10 light-dark for five to seven days. Percent mortality was recorded for the larvae in each well; activity in the eight wells was then averaged. The results are indicated in the table entitled “Table ABC: Biological Results” (See Table Section).
(§1) Bioassays on BAW and CL were conducted according to the procedures outlined in Example A: Bioassays on Beet Armyworm (“BAW”) and Cabbage Looper (“CL”) using the indicated concentrations.

[2] = tested on: Cabbage Looper (Trichoplusia ni); test: Bioassays on CL, 128-well diet tray assay; format: in vivo; conditions: Trichoplusia ni, 168 h; 50 μg/cm^2 on artificial diet, second instar larvae, five to seven days; read-out: CL % Control (or Mortality) rating
Procedure: Bioassays on CL were conducted using a 128-well diet tray assay.
One to five second instar CL larvae were placed in each well (3 mL) of the diet tray that had been previously filled with 1 mL of artificial diet to which 50 μg/cm^2 of the test molecule (dissolved in 50 μL of 90:10 acetone-water mixture) had been applied (to each of eight wells) and then allowed to dry. Trays were covered with a clear self-adhesive cover and held at 25° C., 14:10 light-dark for five to seven days. Percent mortality was recorded for the larvae in each well; activity in the eight wells was then averaged. The results are indicated in the table entitled “Table ABC: Biological Results” (See Table Section).
as §1

For `O=C(NCCS(=O)(=O)c1ccc(Cl)cc1)c1ccc(/C=C/C(c2cc(Cl)c(Cl)c(Cl)c2)C(F)(F)F)cc1Br` (stereo not drawn) [F4, (E)-2-Bromo-N-(2-((4-chlorophenyl)sulfonyl)ethyl)-4-(4,4,4-trifluoro-3-(3,4,5-trichlorophenyl)but-1-en-1-yl)benzamide], which mortality at 50 µg/cm2 [1] is on record?
The mortality at 50 µg/cm2 was 50 to 100%.

What about the mortality at 50 µg/cm2 [2] of the same molecule?
The mortality at 50 µg/cm2 was 50 to 100%.

What does the source list for `O=C(NCCS(=O)(=O)CC(F)(F)F)c1ccc(/C=C/C(c2cc(Cl)c(Cl)c(Cl)c2)C(F)(F)F)cc1Br` (stereo not drawn) [F10, (E)-2-Bromo-4-(4,4,4-trifluoro-3-(3,4,5-trichlorophenyl)but-1-en-1-yl)-N-(2-((2,2,2-trifluoroethyl)sulfonyl)ethyl)benzamide]?
mortality at 50 µg/cm2 [1]: 50 to 100%; mortality at 50 µg/cm2 [2]: 50 to 100%

How did the mortality at 50 µg/cm2 [1] turn out when `CC(C)[C@H](C[S+]([O-])CC(F)(F)F)NC(=O)c1ccc(/C=C/C(c2cc(Cl)c(Cl)c(Cl)c2)C(F)(F)F)cc1C(F)(F)F` (stereo partly drawn) [F15, N-((2R)-3-methyl-1-((2,2,2-trifluoroethyl)sulfinyl)butan-2-yl)-4-((E)-4,4,4-trifluoro-3-(3,4,5-trichlorophenyl)but-1-en-1-yl)-2-(trifluoromethyl)benzamide] was run?
The mortality at 50 µg/cm2 was 50 to 100%.

And the mortality at 50 µg/cm2 [2]?
The mortality at 50 µg/cm2 was 50 to 100%.

Which mortality at 50 µg/cm2 [1] does the source give for `CC(C)[C@H](CS(=O)(=O)CC(F)(F)F)NC(=O)c1ccc(/C=C/C(c2cc(Cl)c(Cl)c(Cl)c2)C(F)(F)F)cc1C(F)(F)F` (stereo partly drawn) [F16, N—((R)-3-Methyl-1-((2,2,2-trifluoroethyl)sulfonyl)butan-2-yl)-4-((E)-4,4,4-trifluoro-3-(3,4,5-trichlorophenyl)but-1-en-1-yl)-2-(trifluoromethyl)benzamide] here?
Its mortality at 50 µg/cm2 is 50 to 100%.

And the mortality at 50 µg/cm2 [2]?
Its mortality at 50 µg/cm2 is 50 to 100%.

For `CC[C@H](CS(=O)(=O)CC(F)(F)F)NC(=O)c1ccc(/C=C/C(c2cc(Cl)c(Cl)c(Cl)c2)C(F)(F)F)cc1C(F)(F)F` (stereo partly drawn) [F17, 4-((E)-4,4,4-Trifluoro-3-(3,4,5-trichlorophenyl)but-1-en-1-yl)-N—((R)-1-((2,2,2-trifluoroethyl)sulfonyl)butan-2-yl)-2-(trifluoromethyl)benzamide], which mortality at 50 µg/cm2 [1] is on record?
The mortality at 50 µg/cm2 was 50 to 100%.

And the mortality at 50 µg/cm2 [2]?
Its mortality at 50 µg/cm2 is 50 to 100%.

Which mortality at 50 µg/cm2 [1] does the source give for `CC[C@H](C[S+]([O-])CC(F)(F)F)NC(=O)c1ccc(/C=C/C(c2cc(Cl)c(Cl)c(Cl)c2)C(F)(F)F)cc1C(F)(F)F` (stereo partly drawn) [F18, 4-((E)-4,4,4-Trifluoro-3-(3,4,5-trichlorophenyl)but-1-en-1-yl)-N-((2R)-1-((2,2,2-trifluoroethyl)sulfinyl)butan-2-yl)-2-(trifluoromethyl)benzamide] here?
The mortality at 50 µg/cm2 was 50 to 100%.

What about the mortality at 50 µg/cm2 [2] of the same molecule?
The mortality at 50 µg/cm2 was 50 to 100%.

Which results are given for `CC[C@H](CS(=O)(=O)CC1CC1(F)F)NC(=O)c1ccc(/C=C/C(c2cc(Cl)c(Cl)c(Cl)c2)C(F)(F)F)cc1Br` (stereo partly drawn) [F19, 2-Bromo-N-((2R)-1-(((2,2-difluorocyclopropyl)methyl)sulfonyl)butan-2-yl)-4-((E)-4,4,4-trifluoro-3-(3,4,5-trichlorophenyl)but-1-en-1-yl)benzamide]?
mortality at 50 µg/cm2 [1]: 50 to 100%; mortality at 50 µg/cm2 [2]: 50 to 100%

How did the mortality at 50 µg/cm2 [1] turn out when `C[C@H](C[S+]([O-])CC(F)(F)F)NC(=O)c1ccc(/C=C/C(c2cc(Cl)c(Cl)c(Cl)c2)C(F)(F)F)cc1C(F)(F)F` (stereo partly drawn) [F23, 4-((E)-4,4,4-Trifluoro-3-(3,4,5-trichlorophenyl)but-1-en-1-yl)-N-((2R)-1-((2,2,2-trifluoroethyl)sulfinyl)propan-2-yl)-2-(trifluoromethyl)benzamide] was run?
Its mortality at 50 µg/cm2 is 50 to 100%.

What about the mortality at 50 µg/cm2 [2] of the same molecule?
The mortality at 50 µg/cm2 was 50 to 100%.

Which mortality at 50 µg/cm2 [1] does the source give for `CCO/C(=C\C(c1cc(Cl)c(Cl)c(Cl)c1)C(F)(F)F)c1ccc(C(=O)N[C@H](C)CSCC(F)(F)F)c(C(F)(F)F)c1` (stereo partly drawn) [F29, 4-((Z)-1-ethoxy-4,4,4-trifluoro-3-(3,4,5-trichlorophenyl)but-1-en-1-yl)-N—((R)-1-((2,2,2-trifluoroethyl)thio)propan-2-yl)-2-(trifluoromethyl)benzamide] here?
The mortality at 50 µg/cm2 was 50 to 100%.

And the mortality at 50 µg/cm2 [2]?
Its mortality at 50 µg/cm2 is 0%.

`CCO/C(=C\C(c1cc(Cl)c(Cl)c(Cl)c1)C(F)(F)F)c1ccc(C(=O)N[C@H](C)C[S+]([O-])CC(F)(F)F)c(C(F)(F)F)c1` (stereo partly drawn) [F30, 4-((Z)-1-ethoxy-4,4,4-trifluoro-3-(3,4,5-trichlorophenyl)but-1-en-1-yl)-N-((2R)-1-((2,2,2-trifluoroethyl)sulfinyl)propan-2-yl)-2-(trifluoromethyl)benzamide] was tested. Which mortality at 50 µg/cm2 [1] did it give?
Its mortality at 50 µg/cm2 is 50 to 100%.

What about the mortality at 50 µg/cm2 [2] of the same molecule?
Its mortality at 50 µg/cm2 is 50 to 100%.

How did the mortality at 50 µg/cm2 [1] turn out when `CO/C(=C\C(c1cc(Cl)c(Cl)c(Cl)c1)C(F)(F)F)c1ccc(C(=O)N[C@H](C)CSCC(F)(F)F)c(C(F)(F)F)c1` (stereo partly drawn) [F31, 4-((Z)-4,4,4-Trifluoro-1-methoxy-3-(3,4,5-trichlorophenyl)but-1-en-1-yl)-N—((R)-1-((2,2,2-trifluoroethyl)thio)propan-2-yl)-2-(trifluoromethyl)benzamide] was run?
The mortality at 50 µg/cm2 was 50 to 100%.

What about the mortality at 50 µg/cm2 [2] of the same molecule?
Its mortality at 50 µg/cm2 is 50 to 100%.

What does the source list for `C[C@H](CSCC(F)(F)F)NC(=O)c1ccc(/C=C/C(c2cc(Cl)c(Cl)c(Cl)c2)C(F)(F)F)cc1C(F)F` (stereo partly drawn) [F32, 2-(Difluoromethyl)-4-((E)-4,4,4-trifluoro-3-(3,4,5-trichlorophenyl)but-1-en-1-yl)-N—((R)-1-((2,2,2-trifluoroethyl)thio)propan-2-yl)benzamide]?
mortality at 50 µg/cm2 [1]: 50 to 100%; mortality at 50 µg/cm2 [2]: 50 to 100%

Which mortality at 50 µg/cm2 [1] does the source give for `CCO/C(=C/C(c1cc(Cl)c(Cl)c(Cl)c1)C(F)(F)F)c1ccc(C(=O)N[C@H](C)CSCC(F)(F)F)c(C(F)(F)F)c1` (stereo partly drawn) [F33, 4-((E)-1-ethoxy-4,4,4-trifluoro-3-(3,4,5-trichlorophenyl)but-1-en-1-yl)-N—((R)-1-((2,2,2-trifluoroethyl)thio)propan-2-yl)-2-(trifluoromethyl)benzamide] here?
The mortality at 50 µg/cm2 was 50 to 100%.

And the mortality at 50 µg/cm2 [2]?
The mortality at 50 µg/cm2 was 50 to 100%.

Which mortality at 50 µg/cm2 [1] does the source give for `C[C@H](CS(=O)(=O)CC(F)(F)F)NC(=O)c1ccc(/C=C/C(c2cc(Cl)c(Cl)c(Cl)c2)C(F)(F)F)cc1C(F)F` (stereo partly drawn) [F43, 2-(Difluoromethyl)-4-((E)-4,4,4-trifluoro-3-(3,4,5-trichlorophenyl)but-1-en-1-yl)-N—((R)-1-((2,2,2-trifluoroethyl)sulfonyl)propan-2-yl)benzamide] here?
The mortality at 50 µg/cm2 was 50 to 100%.

What about the mortality at 50 µg/cm2 [2] of the same molecule?
Its mortality at 50 µg/cm2 is 50 to 100%.

With `CC(C)(C[S+]([O-])CC(F)(F)F)NC(=O)c1ccc(/C=C/C(c2cc(Cl)c(Cl)c(Cl)c2)C(F)(F)F)cc1C(F)(F)F` (stereo not drawn) [F47, (E)-N-(2-Methyl-1-((2,2,2-trifluoroethyl)sulfinyl)propan-2-yl)-4-(4,4,4-trifluoro-3-(3,4,5-trichlorophenyl)but-1-en-1-yl)-2-(trifluoromethyl)benzamide] as the molecule, how does the mortality at 50 µg/cm2 [1] read?
The mortality at 50 µg/cm2 was 50 to 100%.

What about the mortality at 50 µg/cm2 [2] of the same molecule?
Its mortality at 50 µg/cm2 is 50 to 100%.

What does the source list for `CCc1cc(/C=C/C(c2cc(Cl)c(Cl)c(Cl)c2)C(F)(F)F)ccc1C(=O)N[C@H](C)C[S+]([O-])CC(F)(F)F` (stereo partly drawn) [F55, 2-Ethyl-4-((E)-4,4,4-trifluoro-3-(3,4,5-trichlorophenyl)but-1-en-1-yl)-N-((2R)-1-((2,2,2-trifluoroethyl)sulfinyl)propan-2-yl)benzamide]?
mortality at 50 µg/cm2 [1]: 50 to 100%; mortality at 50 µg/cm2 [2]: 50 to 100%

What does the source list for `C[C@H](CSCC(F)(F)F)NC(=O)c1ccc(/C=C/C(c2cc(Cl)c3c(c2)OCO3)C(F)(F)F)cc1C(F)(F)F` (stereo partly drawn) [F75, 4-((E)-3-(7-Chlorobenzo[d][1,3]dioxol-5-yl)-4,4,4-trifluorobut-1-en-1-yl)-N—((R)-1-((2,2,2-trifluoroethyl)thio)propan-2-yl)-2-(trifluoromethyl)benzamide]?
mortality at 50 µg/cm2 [1]: 50 to 100%; mortality at 50 µg/cm2 [2]: 50 to 100%

`C[C@H](CS(=O)(=O)CC(F)(F)F)NC(=O)c1ccc(/C=C/C(c2cc(Cl)c3c(c2)OCO3)C(F)(F)F)cc1C(F)(F)F` (stereo partly drawn) [F76, 4-((E)-3-(7-Chlorobenzo[d][1,3]dioxol-5-yl)-4,4,4-trifluorobut-1-en-1-yl)-N—((R)-1-((2,2,2-trifluoroethyl)sulfonyl)propan-2-yl)-2-(trifluoromethyl)benzamide] was tested. Which mortality at 50 µg/cm2 [1] did it give?
The mortality at 50 µg/cm2 was 50 to 100%.

And the mortality at 50 µg/cm2 [2]?
Its mortality at 50 µg/cm2 is 50 to 100%.

`CCCS(=O)(=O)C[C@@H](C)NC(=O)c1ccc(/C=C/C(c2cc(Cl)c(Cl)c(Cl)c2)C(F)(F)F)cc1C(F)(F)F` (stereo partly drawn) [F79, N—((R)-1-(Propylsulfonyl)propan-2-yl)-4-((E)-4,4,4-trifluoro-3-(3,4,5-trichlorophenyl)but-1-en-1-yl)-2-(trifluoromethyl)benzamide] was tested. Which mortality at 50 µg/cm2 [1] did it give?
Its mortality at 50 µg/cm2 is 50 to 100%.

And the mortality at 50 µg/cm2 [2]?
Its mortality at 50 µg/cm2 is 50 to 100%.

What does the source list for `CC(C)S(=O)(=O)C[C@@H](C)NC(=O)c1ccc(/C=C/C(c2cc(Cl)c(Cl)c(Cl)c2)C(F)(F)F)cc1C(F)(F)F` (stereo partly drawn) [F80, N—((R)-1-(Isopropylsulfonyl)propan-2-yl)-4-((E)-4,4,4-trifluoro-3-(3,4,5-trichlorophenyl)but-1-en-1-yl)-2-(trifluoromethyl)benzamide]?
mortality at 50 µg/cm2 [1]: 50 to 100%; mortality at 50 µg/cm2 [2]: 50 to 100%

Which results are given for `CC(C)CS(=O)(=O)C[C@@H](C)NC(=O)c1ccc(/C=C/C(c2cc(Cl)c(Cl)c(Cl)c2)C(F)(F)F)cc1C(F)(F)F` (stereo partly drawn) [F81, N—((R)-1-(Isobutylsulfonyl)propan-2-yl)-4-((E)-4,4,4-trifluoro-3-(3,4,5-trichlorophenyl)but-1-en-1-yl)-2-(trifluoromethyl)benzamide]?
mortality at 50 µg/cm2 [1]: 50 to 100%; mortality at 50 µg/cm2 [2]: 50 to 100%
